{
  "source": "paper PMC5218480",
  "about": "(PLoS ONE, 2017)",
  "system": "MV-4-11 cells",
  "assay": "Gene expression microarray analysis (Affymetrix PrimeView) and GSEA",
  "type": "cell-based, human",
  "parameters": "RFU PODN (11730768_x_at) / Fold change /veh PODN (11730768_x_at) / RFU LINC00158 (11744669_a_at) / Fold change /veh LINC00158 (11744669_a_at) / RFU DUSP10 (11751237_a_at) / Fold change /veh DUSP10 (11751237_a_at) / RFU ID3 (11757404_x_at) / Fold change /veh ID3 (11757404_x_at) / RFU PLEKHG5 (11737974_s_at) / Fold change /veh PLEKHG5 (11737974_s_at) / RFU LRRC4B (11730491_at) / Fold change /veh LRRC4B (11730491_at) / RFU GIMAP4 (11747438_a_at) / Fold change /veh GIMAP4 (11747438_a_at) / RFU KRT8 (11758183_x_at) / Fold change /veh KRT8 (11758183_x_at) / RFU CNN1 (11734310_a_at) / Fold change /veh CNN1 (11734310_a_at) / RFU VPS37D (11726825_at) / Fold change /veh VPS37D (11726825_at) / RFU C10orf10 (11716522_x_at) / Fold change /veh C10orf10 (11716522_x_at) / RFU KIR2DL2 /// KIR2DL4 /// KIR2DL5A /// KIR2DL5B /// KIR2DS1 /// KIR2DS2 /// KIR2DS3 /// KIR2DS4 /// KIR3DL3 /// KIR3DL3 /// KIR3DS1 (11738374_at) / Fold change /veh KIR2DL2 /// KIR2DL4 /// KIR2DL5A /// KIR2DL5B /// KIR2DS1 /// KIR2DS2 /// KIR2DS3 /// KIR2DS4 /// KIR3DL3 /// KIR3DL3 /// KIR3DS1 (11738374_at) / RFU C1QL1 (11718748_at) / Fold change /veh C1QL1 (11718748_at) / RFU TMPRSS4 (11747572_a_at) / Fold change /veh TMPRSS4 (11747572_a_at) / RFU HAMP (11756126_x_at) / Fold change /veh HAMP (11756126_x_at) / RFU RNFT2 (11725882_a_at) / Fold change /veh RNFT2 (11725882_a_at) / RFU NR4A2 (11747474_a_at) / Fold change /veh NR4A2 (11747474_a_at) / RFU ABCC12 (11746883_a_at) / Fold change /veh ABCC12 (11746883_a_at) / RFU TMEM136 (11760407_x_at) / Fold change /veh TMEM136 (11760407_x_at) / RFU CLDN22 /// WWC2 (11732394_at) / Fold change /veh CLDN22 /// WWC2 (11732394_at) / RFU HLA-DPB1 (11760878_x_at) / Fold change /veh HLA-DPB1 (11760878_x_at) / RFU SPINT1 (11716480_a_at) / Fold change /veh SPINT1 (11716480_a_at) / RFU GAP43 (11754022_s_at) / Fold change /veh GAP43 (11754022_s_at) / RFU A4GNT (11735810_at) / Fold change /veh A4GNT (11735810_at) / RFU PRB3 (11715151_x_at) / Fold change /veh PRB3 (11715151_x_at) / RFU TUBB4B (11761932_at) / Fold change /veh TUBB4B (11761932_at) / RFU CAPN14 (11732068_a_at) / Fold change /veh CAPN14 (11732068_a_at) / RFU TMCC2 (11721928_a_at) / Fold change /veh TMCC2 (11721928_a_at) / RFU IRGQ (11745062_a_at) / Fold change /veh IRGQ (11745062_a_at) / RFU FAM174B (11720279_a_at) / Fold change /veh FAM174B (11720279_a_at) / RFU TMPRSS4 (11748680_a_at) / Fold change /veh TMPRSS4 (11748680_a_at) / RFU FAM212B (11763350_a_at) / Fold change /veh FAM212B (11763350_a_at) / RFU PLEKHG5 (11743358_a_at) / Fold change /veh PLEKHG5 (11743358_a_at) / RFU ZSCAN30 (11745921_a_at) / Fold change /veh ZSCAN30 (11745921_a_at) / RFU CMKLR1 (11741424_a_at) / Fold change /veh CMKLR1 (11741424_a_at) / RFU LOC101060620 /// MAPK8IP1 (11723275_at) / Fold change /veh LOC101060620 /// MAPK8IP1 (11723275_at) / RFU SPTSSB (11747773_x_at) / Fold change /veh SPTSSB (11747773_x_at) / RFU PRSS12 (11739890_at) / Fold change /veh PRSS12 (11739890_at) / RFU BIN1 (11741810_x_at) / Fold change /veh BIN1 (11741810_x_at) / RFU WNT11 (11732464_a_at) / Fold change /veh WNT11 (11732464_a_at) / RFU C10orf10 (11716521_a_at) / Fold change /veh C10orf10 (11716521_a_at) / RFU C5orf56 (11738089_at) / Fold change /veh C5orf56 (11738089_at) / RFU CYB561 (11721691_x_at) / Fold change /veh CYB561 (11721691_x_at) / RFU ANKRD19P (11752326_a_at) / Fold change /veh ANKRD19P (11752326_a_at) / RFU OR2T12 /// OR2T33 /// OR2T8 (11738714_s_at) / Fold change /veh OR2T12 /// OR2T33 /// OR2T8 (11738714_s_at) / RFU VCAN (11748164_a_at) / Fold change /veh VCAN (11748164_a_at) / RFU JSRP1 (11732532_at) / Fold change /veh JSRP1 (11732532_at) / RFU KRTAP10-11 (11738290_x_at) / Fold change /veh KRTAP10-11 (11738290_x_at) / RFU MYO3A (11730013_a_at) / Fold change /veh MYO3A (11730013_a_at) / RFU EBF3 (11725865_a_at) / Fold change /veh EBF3 (11725865_a_at) / RFU CAMK2N1 (11719241_x_at) / Fold change /veh CAMK2N1 (11719241_x_at) / RFU C5orf56 (11738088_a_at) / Fold change /veh C5orf56 (11738088_a_at) / RFU OLFML3 (11715873_a_at) / Fold change /veh OLFML3 (11715873_a_at) / RFU LOC100653217 /// NTM (11731650_a_at) / Fold change /veh LOC100653217 /// NTM (11731650_a_at) / RFU MAPK11 (11762145_a_at) / Fold change /veh MAPK11 (11762145_a_at) / RFU FIZ1 (11724087_x_at) / Fold change /veh FIZ1 (11724087_x_at) / RFU OASL (11726364_x_at) / Fold change /veh OASL (11726364_x_at) / RFU SOX15 (11748057_x_at) / Fold change /veh SOX15 (11748057_x_at) / RFU CD79A (11719716_a_at) / Fold change /veh CD79A (11719716_a_at) / RFU HIST1H1D (11736915_at) / Fold change /veh HIST1H1D (11736915_at) / RFU CASKIN2 (11723855_a_at) / Fold change /veh CASKIN2 (11723855_a_at) / RFU LOC730098 (11760151_x_at) / Fold change /veh LOC730098 (11760151_x_at) / RFU OR4N2 (11742367_at) / Fold change /veh OR4N2 (11742367_at) / RFU PRRT2 (11749266_a_at) / Fold change /veh PRRT2 (11749266_a_at) / RFU SNX32 (11753110_a_at) / Fold change /veh SNX32 (11753110_a_at) / RFU CDHR5 (11726645_a_at) / Fold change /veh CDHR5 (11726645_a_at) / RFU RCAN1 (11760418_a_at) / Fold change /veh RCAN1 (11760418_a_at) / RFU FAM167A (11723789_a_at) / Fold change /veh FAM167A (11723789_a_at) / RFU FAM26E (11764081_at) / Fold change /veh FAM26E (11764081_at) / RFU ISYNA1 (11749810_s_at) / Fold change /veh ISYNA1 (11749810_s_at) / RFU ACY1 (11761880_at) / Fold change /veh ACY1 (11761880_at) / RFU 11764098_at / Fold change /veh 11764098_at / RFU SAMD14 (11745864_x_at) / Fold change /veh SAMD14 (11745864_x_at) / RFU NPB (11741838_a_at) / Fold change /veh NPB (11741838_a_at) / RFU TMPRSS6 (11731388_a_at) / Fold change /veh TMPRSS6 (11731388_a_at) / RFU KRTAP10-2 (11738614_at) / Fold change /veh KRTAP10-2 (11738614_at) / RFU ARHGAP8 /// PRR5-ARHGAP8 (11727945_x_at) / Fold change /veh ARHGAP8 /// PRR5-ARHGAP8 (11727945_x_at) / RFU KRTAP5-7 /// NADSYN1 (11734609_at) / Fold change /veh KRTAP5-7 /// NADSYN1 (11734609_at) / RFU RASL12 (11751679_a_at) / Fold change /veh RASL12 (11751679_a_at) / RFU CDKN2B (11736163_a_at) / Fold change /veh CDKN2B (11736163_a_at) / RFU PRF1 (11729649_at) / Fold change /veh PRF1 (11729649_at) / RFU, ZNF638 /// ZNF638-IT1 / Fold change vs veh, ZNF638 /// ZNF638-IT1 / RFU, PANK3 / Fold change vs veh, PANK3 / RFU, SH3YL1 / Fold change vs veh, SH3YL1 / RFU, ZEB2 / Fold change vs veh, ZEB2 / RFU, NRIP1 / Fold change vs veh, NRIP1 / RFU, PTTG1IP / Fold change vs veh, PTTG1IP / RFU, CAPN2 / Fold change vs veh, CAPN2 / RFU, MED14 / Fold change vs veh, MED14 / RFU, SNORA58 / Fold change vs veh, SNORA58 / RFU, C1orf63 / Fold change vs veh, C1orf63 / RFU, LRRFIP1 / Fold change vs veh, LRRFIP1 / RFU, NDUFAF7 / Fold change vs veh, NDUFAF7 / RFU, SLC12A2 / Fold change vs veh, SLC12A2 / RFU, IBTK / Fold change vs veh, IBTK / RFU, ESF1 / Fold change vs veh, ESF1 / Fold change vs veh, TMEM50B / RFU, TAOK1 / Fold change vs veh, TAOK1 / RFU, ACBD3 / Fold change vs veh, ACBD3 / RFU, TMA16 / Fold change vs veh, TMA16 / RFU, RWDD3 / Fold change vs veh, RWDD3 / RFU, BCAT1 / Fold change vs veh, BCAT1 / RFU, EDEM3 / Fold change vs veh, EDEM3 / RFU, TMEM33 / Fold change vs veh, TMEM33 / RFU, WDR75 / Fold change vs veh, WDR75 / RFU, AHCTF1 / Fold change vs veh, AHCTF1 / RFU, TFRC / Fold change vs veh, TFRC / RFU, ZDHHC17 / Fold change vs veh, ZDHHC17 / RFU, NOM1 / Fold change vs veh, NOM1 / RFU, ARL8B / Fold change vs veh, ARL8B / RFU, ZBTB11 / Fold change vs veh, ZBTB11 / RFU, TAMM41 / Fold change vs veh, TAMM41 / RFU, KIAA1704 /// LOC100996395 / Fold change vs veh, KIAA1704 /// LOC100996395 / RFU, ING1 / Fold change vs veh, ING1 / RFU, TRMT61B / Fold change vs veh, TRMT61B / RFU, FUBP3 / Fold change vs veh, FUBP3 / RFU, TP53 / Fold change vs veh, TP53 / RFU, TNKS2 / Fold change vs veh, TNKS2 / RFU, ZFP14 / Fold change vs veh, ZFP14 / RFU, ACTR2 / Fold change vs veh, ACTR2 / RFU, PPP3R1 / Fold change vs veh, PPP3R1 / RFU, PIK3R1 / Fold change vs veh, PIK3R1 / RFU, HNRNPA1 / Fold change vs veh, HNRNPA1 / RFU, RNF170 / Fold change vs veh, RNF170 / RFU, ZNF28 / Fold change vs veh, ZNF28 / RFU, RNGTT / Fold change vs veh, RNGTT / RFU, OGT / Fold change vs veh, OGT / RFU, BRD1 / Fold change vs veh, BRD1 / RFU, MARS / Fold change vs veh, MARS / RFU, ZNF655 / Fold change vs veh, ZNF655 / RFU, FAHD1 / Fold change vs veh, FAHD1 / RFU, BDP1 / Fold change vs veh, BDP1 / RFU, LRRCC1 / Fold change vs veh, LRRCC1 / RFU, ARID1A / Fold change vs veh, ARID1A / RFU, ZNF146 / Fold change vs veh, ZNF146 / RFU, ZNF330 / Fold change vs veh, ZNF330 / RFU, GPN3 / Fold change vs veh, GPN3 / RFU, C9orf123 / Fold change vs veh, C9orf123 / RFU, N4BP2L2 / Fold change vs veh, N4BP2L2 / RFU, ARFIP1 / Fold change vs veh, ARFIP1 / RFU, FAM179B / Fold change vs veh, FAM179B / RFU, BCL10 / Fold change vs veh, BCL10 / RFU, UHRF1BP1L / Fold change vs veh, UHRF1BP1L / RFU, BET1 / Fold change vs veh, BET1 / RFU, CNOT2 / Fold change vs veh, CNOT2 / RFU, ZNF268 / Fold change vs veh, ZNF268 / Fold change vs veh, ZNF507 / RFU, DGCR2 / Fold change vs veh, DGCR2 / RFU, WDSUB1 / Fold change vs veh, WDSUB1 / Fold change vs veh, HSP90B1 /// MIR3652 / RFU, ADSS / Fold change vs veh, ADSS / RFU, GK / Fold change vs veh, GK / RFU, ZNF148 / Fold change vs veh, ZNF148 / RFU, TAF9 / Fold change vs veh, TAF9 / RFU, SLC1A5 / Fold change vs veh, SLC1A5 / RFU, SLMO2 / Fold change vs veh, SLMO2 / RFU, ABCC4 / Fold change vs veh, ABCC4 / RFU, LOC101060439 /// RAP1B / Fold change vs veh, LOC101060439 /// RAP1B / RFU, RFX7 / Fold change vs veh, RFX7 / RFU, GTPBP10 / Fold change vs veh, GTPBP10 / RFU, CNEP1R1 / Fold change vs veh, CNEP1R1 / RFU, BIVM-ERCC5 /// ERCC5 / Fold change vs veh, BIVM-ERCC5 /// ERCC5 / RFU, ILF3 / Fold change vs veh, ILF3 / RFU 11762660_at / Fold change /veh 11762660_at / RFU VCAN (11757783_s_at) / Fold change /veh VCAN (11757783_s_at) / RFU DDX43 (11728927_at) / Fold change /veh DDX43 (11728927_at) / RFU KRT8 (11758188_x_at) / Fold change /veh KRT8 (11758188_x_at) / RFU NKD1 (11759106_at) / Fold change /veh NKD1 (11759106_at) / RFU SRD5A1 (11742802_a_at) / Fold change /veh SRD5A1 (11742802_a_at) / RFU TPSAB1 /// TPSB2 (11721975_s_at) / Fold change /veh TPSAB1 /// TPSB2 (11721975_s_at) / RFU GSTM3 (11746129_a_at) / Fold change /veh GSTM3 (11746129_a_at) / RFU IL23R (11737362_x_at) / Fold change /veh IL23R (11737362_x_at) / RFU TMEM51 (11727254_a_at) / Fold change /veh TMEM51 (11727254_a_at) / RFU PIWIL2 (11732686_x_at) / Fold change /veh PIWIL2 (11732686_x_at) / RFU ORM1 (11744905_x_at) / Fold change /veh ORM1 (11744905_x_at) / RFU CCDC152 (11743942_at) / Fold change /veh CCDC152 (11743942_at) / RFU ECM1 (11717891_a_at) / Fold change /veh ECM1 (11717891_a_at) / RFU IL23R (11748794_a_at) / Fold change /veh IL23R (11748794_a_at) / RFU TNFAIP8L3 (11732012_x_at) / Fold change /veh TNFAIP8L3 (11732012_x_at) / RFU MBOAT4 (11741988_at) / Fold change /veh MBOAT4 (11741988_at) / RFU 11764193_at / Fold change /veh 11764193_at / RFU TMEM53 (11763286_at) / Fold change /veh TMEM53 (11763286_at) / RFU MAGEB2 (11727129_at) / Fold change /veh MAGEB2 (11727129_at) / RFU TMEM200A (11744735_a_at) / Fold change /veh TMEM200A (11744735_a_at) / RFU CCDC152 (11751479_a_at) / Fold change /veh CCDC152 (11751479_a_at) / RFU FAM211A (11726209_a_at) / Fold change /veh FAM211A (11726209_a_at) / RFU RGS16 (11746705_a_at) / Fold change /veh RGS16 (11746705_a_at) / RFU VCAN (11755009_s_at) / Fold change /veh VCAN (11755009_s_at) / RFU RHOB (11743442_s_at) / Fold change /veh RHOB (11743442_s_at) / RFU RGS16 (11720943_a_at) / Fold change /veh RGS16 (11720943_a_at) / RFU RGS16 (11720944_at) / Fold change /veh RGS16 (11720944_at) / RFU, VPS4B / Fold change vs veh, VPS4B / RFU, CREB1 / Fold change vs veh, CREB1 / RFU, DNAJC13 / Fold change vs veh, DNAJC13 / RFU, GNAQ / Fold change vs veh, GNAQ / RFU, CDK5R1 / Fold change vs veh, CDK5R1 / RFU, ZRANB3 / Fold change vs veh, ZRANB3 / RFU, CUL4A / Fold change vs veh, CUL4A / RFU, CCNY / Fold change vs veh, CCNY / RFU, UFL1 / Fold change vs veh, UFL1 / RFU, COG3 / Fold change vs veh, COG3 / RFU, DIAPH2 / Fold change vs veh, DIAPH2 / RFU, SKA2 / Fold change vs veh, SKA2 / RFU, AFF3 / Fold change vs veh, AFF3 / RFU, LMF1 / Fold change vs veh, LMF1 / RFU, IPO11 / Fold change vs veh, IPO11 / RFU, DFFB / Fold change vs veh, DFFB / RFU, FOXP1 / Fold change vs veh, FOXP1 / RFU, CARD8 / Fold change vs veh, CARD8 / RFU, STRN3 / Fold change vs veh, STRN3 / RFU, ADK / Fold change vs veh, ADK / RFU, RASSF2 / Fold change vs veh, RASSF2 / RFU, WIPF1 / Fold change vs veh, WIPF1 / RFU, LARP1B / Fold change vs veh, LARP1B / RFU, RASA1 / Fold change vs veh, RASA1 / RFU, RB1 / Fold change vs veh, RB1 / RFU, PPFIA1 / Fold change vs veh, PPFIA1 / RFU, MAT2A / Fold change vs veh, MAT2A / RFU, CCT5 / Fold change vs veh, CCT5 / RFU, WDR92 / Fold change vs veh, WDR92 / RFU, CUX1 / Fold change vs veh, CUX1 / RFU, TTC7A / Fold change vs veh, TTC7A / RFU, TMEM135 / Fold change vs veh, TMEM135 / RFU, DEPTOR / Fold change vs veh, DEPTOR / RFU, CPM / Fold change vs veh, CPM / RFU, DNAJB6 / Fold change vs veh, DNAJB6 / RFU, CACNA2D3 / Fold change vs veh, CACNA2D3 / RFU, DTX4 / Fold change vs veh, DTX4 / RFU, TFCP2 / Fold change vs veh, TFCP2 / RFU, GMCL1 /// GMCL1P1 / Fold change vs veh, GMCL1 /// GMCL1P1 / RFU, AEBP2 / Fold change vs veh, AEBP2 / RFU, SNHG1 /// SNORD22 /// SNORD25 /// SNORD26 /// SNORD27 /// SNORD28 /// SNORD29 /// SNORD31 / Fold change vs veh, SNHG1 /// SNORD22 /// SNORD25 /// SNORD26 /// SNORD27 /// SNORD28 /// SNORD29 /// SNORD31 / Fold change (Aza/veh), C12orf56 (ProbeSet 11735607_a_at) / Fold change (ACY-1035/veh), C12orf56 (ProbeSet 11735607_a_at) / Fold change (Aza/veh), FGFR1OP (ProbeSet 11751329_s_at) / Fold change (ACY-1035/veh), FGFR1OP (ProbeSet 11751329_s_at) / Fold change (Aza/veh), VPS36 (ProbeSet 11739960_a_at) / Fold change (ACY-1035/veh), VPS36 (ProbeSet 11739960_a_at) / RFU SYPL1 (11715823_x_at) / Fold change /veh SYPL1 (11715823_x_at) / RFU IGFBP7 (11715501_s_at) / Fold change /veh IGFBP7 (11715501_s_at) / RFU REEP3 (11722064_at) / Fold change /veh REEP3 (11722064_at) / RFU IGLL1 (11728026_x_at) / Fold change /veh IGLL1 (11728026_x_at): dose or concentration left out as unconfirmed",
  "conditions": "ProbeSet 11758779_at; LIST B",
  "data": [
    {"compound": "Nc1ccc(-c2cccs2)cc1NC(=O)c1ccc2c(c1)cc(C1CC1)n2CCN1CCOCC1", "note": "[ACY-1035]", "values": [
      {"measurement": "Fold change vs veh, TMEM50B", "result": 0.95}
    ]}
  ]
}
